This note sets out measurements from patent publication US20210308077A1, “COMBINATIONS INCLUDING BETA-ADRENORECEPTOR AGONISTS FOR TREATMENT OF PARKINSON`S DISEASE AND MOVEMENT DISORDERS” (The Brigham and Women`s Hospital, Inc., priority 2017, published 2021).

Experiment [1] has as its system SNCA mRNA. Put plainly: endogenous SNCA mRNA expression in SK-N-MC neuroblastoma cells (screening, replication, confirmation; qPCR). Type of experiment: cell-based, human. How it is done:
Human neuroblastoma SK-N-MC cells were acquired from American Type Culture Collection (ATCC). Cells were cultured at 37° C. in 5% CO2 in DMEM/F12 supplemented with 10% fetal bovine serum (FBS) and 100 units per ml penicillin and streptomycin. The drug library was obtained from the Laboratory for Drug Discovery in Neurodegeneration (LDDN), Harvard NeuroDiscovery Center, Boston, Mass. The drug library consisted of approximately 1,126 small molecules. About 586 of the compounds were from Prestwick Chemical's (Illkirch, France) library, a unique collection of mostly off-patent small organic molecules, 90% being marketed drugs and 10% bioactive alkaloids or related substances. About 400 compounds were from the SPECS collection (available on the world wide web at.specs.net). 140 compounds generated in house by the LDDN were also included in the library. Compounds for the screening were stored as DMSO stocks. All drugs used for Confirmation Assay were purchased from Sigma (St. Louis, Mo.).
Approximately 2×10^4low passage SK-N-MC cells were seeded per well in 384-well cell culture plates for 24 hours. Compounds were then transferred into each well (final concentration 1 μM) by using a BioMekFX (Beckman Coulter) equipped with a 384-channel pipetting head. After 48 hours in cell culture incubator, cells were washed once in cold phosphate-buffered saline (PBS) by using BioTek ELx405 select CW plate washer and then lysed at room temperature (22-24° C.) with lysis buffer (Applied Biosystems) using the Cell-to-CT procedures according to the manufacturer's instructions (Applied Biosystems). After 5 min, lysis was terminated by incubation with stop solution (Applied Biosystems). 11 μL of each lysate were transferred to 384-well plates for RT in a total volume of 25 μl. 4 μL of RT reaction were then transferred to new 384-well plates for qPCR.
Using the Cell-to-CT kit (Applied Biosystems) we performed expression analysis directly from SK-N-MC neuroblastoma cells cultured in 384-well plates through in situ cDNA synthesis. In this miniaturized assay, high copy numbers of SNCA and of endogenous controls were detected as indicated by raw cycle threshold values of 25.11±0.02 (mean CT value±SEM) and 20.2±0.02 for SNCA and Ubiquitin C (UBC), respectively. Technical variation (using identical cDNA loaded in multiple wells) and biological variation (cDNA synthesized in situ in each of 384 wells of cultured SK-N-MC cells treated with DMSO) were low, with coefficients of variation of 1% and 5.2% respectively. At least ten DMSO-treated controls were included on each 384-well plate as negative external control and calibrator. An equal amount of cDNA derived from Universal Reference RNA was spotted on all plates as plate-to-plate control. Control reactions lacking template or reverse transcription were assayed for contamination with genomic DNA.
41 compounds were forwarded into the Replication Assay. For each compound eight wells were treated with drug and compared to eight wells treated with DMSO alone. The Cell-to-CT procedure was employed using two new reference genes, ribosomal protein L13 (RPL13) and glucuronidase beta (GUSB) (instead of UBC) to control for input RNA. […] 10 compounds met these criteria and were forwarded from the Replication into the Confirmation Assay.
The ten forwarded compounds were used in the Confirmation Assay. For each compound ten wells were treated with drug and compared to ten wells treated with DMSO alone. RNA was extracted using TRIzol® following the manufacturers protocol (Life Technologies). Freshly ordered compounds were used. […] Six compounds met these criteria and were forwarded from the Confirmation Assay to the ELISA Assay stage (see below).
Total RNA from flash-frozen mice brain tissue, rodent primary cells, human neuroblastoma cells and iPSC-derived neuronal cells was isolated using TRIzol® (Life Technologies) following the manufacturer's protocol. […]

In experiment [2] the test system is Parkinson's disease. Put plainly: Norwegian Prescription Database analysis of incident Parkinson's disease. Format: in vivo, human. From the text:
We included the entire population of Norway alive on 1 Jan. 2004 by linking the Norwegian National Registry (NNR) with the Norwegian Prescription Database (NorPD) using the unique national identification number. The NNR contains information on all residents in Norway, time of immigration, emigration and death. This information was further linked to the Norwegian National Education Database (NNED) to assess level of education of all participants.
This registry contains complete information on all prescribed drugs dispensed at pharmacies to individuals since 2004. Each prescription includes the national identification number, which makes it possible to generate a precise chronological prescription record for individuals over time, and to link this information to other registries. Drugs are classified according to the Anatomical Therapeutic Chemical classification and doses are reported as defined daily dose (DDD). If the national insurance scheme covers the cost of the drug, the prescription also contains the diagnosis the drug was prescribed for (from 2008: ICD-10 and ICPC; before 2008: local diagnostic code).
The first year of prescription of any antiparkinson drug (N04) was considered year of onset of PD. We used the year 2004 as a washout-period to only include incident cases.
To further limit the chance of reverse causality, we only included users who had been prescribed at least 365 DDD or more of propranolol.
The level of education was categorized into primary education, secondary education, undergraduate education or graduate education. Age at study start was categorized in 5 years intervals. […] Outcome was PD as defined above at time of first prescription of an antiparkinson drug. Participants not developing PD were censored at end of follow-up (31 Dec. 2014), at date of death or date of emigration out of Norway, whichever occurred first. To test for dose-response effects, we categorized participants according to the cumulative number of DDD in 2004-2007 and estimated the RR of developing PD in 2008-2014. […] The hazard ratios were interpreted as rate ratios.

On to `CC(C)NCC(O)COc1cccc2ccccc12` (centres unmarked) [Propranolol, propranolol], for which the “endogenous SNCA mRNA under β2AR antagonism” value in experiment [1] (SK-N-MC cells) is “increased”. Also, in experiment [1] (SK-N-MC cells, co-treatment with clenbuterol), the “effect of co-treatment on clenbuterol's SNCA expression-lowering effects” value is listed as “blocked clenbuterol's SNCA expression-lowering effects”. Also, in experiment [2] (ever user vs never user, 11 year follow-up of the entire population of Norway, propranolol: at least 365 defined daily doses), the “Rate ratio (RR) for Parkinson's disease, age-, sex-adjusted” value is recorded as 2.16. In experiment [2] (ever user vs never user, 11 year follow-up, adjusted for age, sex and level of education, propranolol: at least 365 defined daily doses), the “Rate ratio (RR) for Parkinson's disease, multivariate adjusted” value worked out at 2.20. In addition, in experiment [2] (time lags of one and two years, only cardiovascular diagnoses), the “Rate ratio for Parkinson's disease with time lag between first exposure and PD onset” value is listed as 1.82.

In the case of `CC(C)(C)NCC(O)c1ccc(O)c(CO)c1` (centres unmarked) [Salbutamol, salbutamol], the “SNCA mRNA expression, dose dependence” value in experiment [1] (SK-N-MC cells, indicated doses, 48 hours) is “lowered SNCA mRNA expression in a dose-dependent manner”. The “Rate ratio (RR) for Parkinson's disease during 2008-2014, multivariate adjusted” value is 0.45 (0.31-0.67) in experiment [2] (High (≥180 DDD) prescribed during 2004-2007, vs never user) and 0.60 (0.40-0.91) in experiment [2] (Medium (60-180 DDD) prescribed during 2004-2007, vs never user).

For `CC(C)(C)NCC(O)c1cc(Cl)c(N)c(Cl)c1` (centres unmarked) [clenbuterol], the “SNCA mRNA levels after 14 days” value in experiment [1] (SK-N-MC cells, 10 μM, 14 days) is given as “lowered”. Moreover, in experiment [1] (SK-N-MC cells, 5, 10, 20 μM, four days), the “α-synuclein mRNA levels with increasing concentrations” value was “decrease in α-synuclein mRNA”. In addition, in experiment [1] (SK-N-MC cells, vs vehicle-treated cells), the “relative SNCA mRNA abundance (with H3K27Ac blot)” value is reported as “decreased”.
